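Dose response: 5 concentrations. Exposure: 48 h. Format: 96-well plates. Endpoint: linear interpolation; highest concentration if not reached. Abbreviation: GI50, concentration required for 50% inhibition of growth. TGI: total growth inhibition.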
Assays:
Experiment in all cases: NCI-60 cell line screen, 48 h
SF-539 CNS = system: SF-539 CNS
SK-MEL-2 melanoma = system: SK-MEL-2 melanoma
OVCAR-4 ovarian = system: OVCAR-4 ovarian
MOLT-4 leukemia = system: MOLT-4 leukemia
SF-268 CNS = system: SF-268 CNS
EKVX NSCLC = system: EKVX NSCLC
CCRF-CEM leukemia = system: CCRF-CEM leukemia
RXF 393 renal = system: RXF 393 renal
NCI-H23 lung = system: NCI-H23 lung
HOP-92 NSCLC = system: HOP-92 NSCLC

Structure (SMILES)	GI50 (SF-539 CNS) [nM]	TGI (SF-539 CNS) [nM]	GI50 (SK-MEL-2 melanoma) [nM]	TGI (SK-MEL-2 melanoma) [nM]	GI50 (OVCAR-4 ovarian) [nM]	TGI (OVCAR-4 ovarian) [nM]	GI50 (MOLT-4 leukemia) [nM]	TGI (MOLT-4 leukemia) [nM]	GI50 (SF-268 CNS) [nM]	TGI (SF-268 CNS) [nM]	GI50 (EKVX NSCLC) [nM]	TGI (EKVX NSCLC) [nM]	GI50 (CCRF-CEM leukemia) [nM]	TGI (CCRF-CEM leukemia) [nM]	GI50 (RXF 393 renal) [nM]	TGI (RXF 393 renal) [nM]	GI50 (NCI-H23 lung) [nM]	TGI (NCI-H23 lung) [nM]	GI50 (HOP-92 NSCLC) [nM]	TGI (HOP-92 NSCLC) [nM]
N#Cc1ccc(-n2cnc(NC(=O)[C@H]3CCN(C#N)C3)c2)cc1	1180	5950	935	4090	1860	12500	2150	> 29800	2830	25500	2380	10100	1030	> 100000	374	2600	1780	12600	1920	6980
O=C(O)[C@@H]1C[C@@H](O)CN1		> 100000		> 100000		> 100000		> 100000		> 100000		> 100000		> 100000		> 100000		> 100000		> 100000
C/C=C(/C)C(=O)OC1C=C(CO)C(=O)C(OC(=O)/C(C)=C\C)C1C(C)C (stereo not given)	1380	2690	1820	3470	1120	2490	335	3890	1460	3050	1750	3220	321	4190	1130	2540	1500	3230	528	1150

From PubChem BioAssay (NCI)
